From patent US20240132431A1, “METHOD FOR ALKYLATING ACIDIC FUNCTIONAL GROUP” (Chugai Seiyaku Kabushiki Kaisha, priority 2021, published 2024)

Target: T1, Bcl-2 protein (Recombinant Human Bcl-2 Protein) (Homo sapiens, UniProt P10415)
T1 construct: purchased Novus NBP2-34889
Experiment: Binding evaluation of mixture library compounds to Bcl-2 using AS-MS (affinity selection mass spectrometry)
Conditions: for ASMS ratio (%) n = 1 / ASMS ratio (%) n = 2: ASMS Ratio(%)=(A−C)/B×100; for ASMS ratio (%) n = 1: replicate n = 1; for ASMS ratio (%) n = 2: replicate n = 2
Outline: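 Bcl-2 binding is scored from LC/MS signal retained with protein through gel-filtration spin columns, normalised to unfiltered and protein-free controls. Incubation: 20 μM protein, […] per compound, 1 h, 23° C.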

[1] = AS-MS on the mixture of 1200 library compounds
[2] = AS-MS, mixture of 1200 compounds, Bcl-2

T1 sequence (P10415 whole entry): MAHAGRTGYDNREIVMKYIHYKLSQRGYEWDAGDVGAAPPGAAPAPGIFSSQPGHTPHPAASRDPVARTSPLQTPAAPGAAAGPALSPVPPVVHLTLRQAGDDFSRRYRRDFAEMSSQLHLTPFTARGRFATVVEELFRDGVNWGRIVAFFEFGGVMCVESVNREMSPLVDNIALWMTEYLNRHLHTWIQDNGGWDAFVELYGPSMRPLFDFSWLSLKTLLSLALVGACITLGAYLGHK

`CCOc1cccc(-c2ccc(C(=O)N3CCN(c4ccc(C(=O)N(CC)CC)nn4)CC3)cc2C)c1` [B4J003-01, 6-[4-[4-(3-Ethoxyphenyl)-3-methylbenzoyl]piperazin-1-yl]-N,N-diethylpyridazine-3-carboxamide] was tested, and the “ASMS ratio (%) n = 1” value [1] was 0.0% and the “ASMS ratio (%) n = 2” value [1] was 0.0%.
In the case of `CCOc1cncc(-c2ccc(C(=O)N3CCN(c4ccc(C(=O)NS(=O)(=O)c5ccc(NCCSc6ccccc6)c([N+](=O)[O-])c5)cc4)CC3)cc2C)c1` [B2Q026-01, 4-[4-[4-(5-Ethoxypyridin-3-yl)-3-methylbenzoyl]piperazin-1-yl]-N-[3-nitro-4-(2-phenylsulfanylethylamino)phenyl]sulfonylbenzamide], the “ASMS ratio (%) n = 1” value (AS-MS, mixture library, Bcl-2) is reported as 4.4% and the “ASMS ratio (%) n = 2” value (AS-MS, mixture library, Bcl-2) is reported as 0.4%.
With `CCOc1cncc(-c2ccc(CN3CCN(c4ccc(C(=O)Nc5ccc(OC)cc5)cc4)CC3)c3ccccc23)c1` [B1O066-01, 4-[4-[[4-(5-Ethoxypyridin-3-yl)naphthalen-1-yl]methyl]piperazin-1-yl]-N-(4-methoxyphenyl)benzamide] the “ASMS ratio (%) n = 1” value [1] was 12.1% and the “ASMS ratio (%) n = 2” value [1] was 2.7%.
`CCOc1cccc(C#Cc2cc(C(=O)N3CCN(c4ccc(C(=O)NS(=O)(=O)CC56CC7CC(CC(C7)C5)C6)nn4)CC3)cc(C(F)(F)F)c2)c1` [B2A019-01, N-(1-Adamantylmethylsulfonyl)-6-[4-[3-[2-(3-ethoxyphenyl)ethynyl]-5-(trifluoromethyl)benzoyl]piperazin-1-yl]pyridazine-3-carboxamide] was tested, and the “ASMS ratio (%) n = 1” value (AS-MS, mixture library, Bcl-2) was 7.4% and the “ASMS ratio (%) n = 2” value (AS-MS, mixture library, Bcl-2) was 5.0%.
With `CCOc1cncc(-c2cc(C(=O)N3CCN(c4ccc(C(=O)NS(=O)(=O)c5ccc(NCCSc6ccccc6)c([N+](=O)[O-])c5)nn4)CC3)cc(C(C)(C)C)c2)c1` [B2Q016-01, 6-[4-[3-tert-Butyl-5-(5-ethoxypyridin-3-yl)benzoyl]piperazin-1-yl]-N-[3-nitro-4-(2-phenylsulfanylethylamino)phenyl]sulfonylpyridazine-3-carboxamide] the “ASMS ratio (%) n = 1” value (AS-MS, mixture library, Bcl-2) was 10.6% and the “ASMS ratio (%) n = 2” value (AS-MS, mixture library, Bcl-2) was 6.5%.
In the case of `CCOc1cccc(-c2cc(C(=O)N3CCN(c4ccc(C(=O)NCC56CC7CC(CC(C7)C5)C6)cc4)CC3)cc(C(C)(C)C)c2)c1` [B1A037-01, N-(1-Adamantylmethyl)-4-[4-[3-tert-butyl-5-(3-ethoxyphenyl)benzoyl]piperazin-1-yl]benzamide], the “ASMS ratio (%) n = 1” value [2] is reported as 3.3% and the “ASMS ratio (%) n = 2” value [2] is reported as −5.0%.
In the case of `CCOc1cncc(-c2ccc(CN3CCN(c4ccc(C(=O)NCC56CC7CC(CC(C7)C5)C6)cc4)CC3)cc2C)c1` [B1A048-01, N-(1-Adamantylmethyl)-4-[4-[[4-(5-ethoxypyridin-3-yl)-3-methylphenyl]methyl]piperazin-1-yl]benzamide], the “ASMS ratio (%) n = 1” value [2] is reported as 1.5% and the “ASMS ratio (%) n = 2” value [2] is reported as 3.6%.
With `CCOc1cncc(-c2ccccc2CN2CCN(c3ccc(C(=O)Nc4ccc(OC)cc4)cc3)CC2)c1` [B1O046-01, 4-[4-[[2-(5-Ethoxypyridin-3-yl)phenyl]methyl]piperazin-1-yl]-N-(4-methoxyphenyl)benzamide] the “ASMS ratio (%) n = 1” value [1] was 0.6% and the “ASMS ratio (%) n = 2” value [1] was 1.3%.
`CCOc1cccc(-c2ccc(CN3CCN(c4ccc(C(=O)NS(=O)(=O)CC56CC7CC(CC(C7)C5)C6)cc4)CC3)c(OC)c2)c1` [B2A053-01, N-(1-Adamantylmethylsulfonyl)-4-[4-[[4-(3-ethoxyphenyl)-2-methoxyphenyl]methyl]piperazin-1-yl]benzamide] was tested, and the “ASMS ratio (%) n = 1” value (AS-MS, mixture library, Bcl-2) was 0.0% and the “ASMS ratio (%) n = 2” value (AS-MS, mixture library, Bcl-2) was 0.0%.
`CCOc1cccc(-c2ccccc2CCC(=O)N2CCN(c3ccc(C(=O)N(C)CC45CC6CC(CC(C6)C4)C5)nn3)CC2)c1` [B3A011-01, N-(1-Adamantylmethyl)-6-[4-[3-[2-(3-ethoxyphenyl)phenyl]propanoyl]piperazin-1-yl]-N-methylpyridazine-3-carboxamide] was tested, and the “ASMS ratio (%) n = 1” value [1] was 4.5% and the “ASMS ratio (%) n = 2” value [1] was 2.0%.
With `CCOc1cncc(-c2ccccc2CN2CCN(c3ccc(C(=O)Nc4ccc(OC)cc4)nn3)CC2)c1` [B1O072-01, 6-[4-[[2-(5-Ethoxypyridin-3-yl)phenyl]methyl]piperazin-1-yl]-N-(4-methoxyphenyl)pyridazine-3-carboxamide] the “ASMS ratio (%) n = 1” value [1] was 4.1% and the “ASMS ratio (%) n = 2” value [1] was 0.4%.
With `CCOc1cccc(-c2cc(C(=O)N3CCN(c4ccc(C(=O)N(C)CC56CC7CC(CC(C7)C5)C6)cc4)CC3)cc(C(C)(C)C)c2)c1` [B3A037-01, N-(1-Adamantylmethyl)-4-[4-[3-tert-butyl-5-(3-ethoxyphenyl)benzoyl]piperazin-1-yl]-N-methylbenzamide] the “ASMS ratio (%) n = 1” value [1] was 0.0% and the “ASMS ratio (%) n = 2” value [1] was 0.0%.
`CCOc1cncc(C#Cc2ccccc2C(=O)N2CCN(c3ccc(C(=O)NS(=O)(=O)C(C)(C)C)nn3)CC2)c1` [B2L008-01, N-tert-Butylsulfonyl-6-[4-[2-[2-(5-ethoxypyridin-3-yl)ethynyl]benzoyl]piperazin-1-yl]pyridazine-3-carboxamide] was tested, and the “ASMS ratio (%)” value (n = 1) was 0.0% and the “ASMS ratio (%)” value (n = 2) was 0.0%.
For `CCOc1cncc(-c2cc(CN3CCN(c4ccc(C(=O)NS(=O)(=O)c5ccc(NCCSc6ccccc6)c(C(F)(F)F)c5)cc4)CC3)cc(OCC)c2)c1` [B2R056-01, 4-[4-[[3-Ethoxy-5-(5-ethoxypyridin-3-yl)phenyl]methyl]piperazin-1-yl]-N-[4-(2-phenylsulfanylethylamino)-3-(trifluoromethyl)phenyl]sulfonylbenzamide], the “ASMS ratio (%)” value (n = 2) was −63.9%.
With `CCOc1cccc(-c2ccc(CN3CCN(c4ccc(C(=O)NCC56CC7CC(CC(C7)C5)C6)nn4)CC3)cc2C)c1` [B1A073-01, N-(1-Adamantylmethyl)-6-[4-[[4-(3-ethoxyphenyl)-3-methylphenyl]methyl]piperazin-1-yl]pyridazine-3-carboxamide] the “ASMS ratio (%) n = 1” value [2] was 3.2% and the “ASMS ratio (%) n = 2” value [2] was −4.7%.
With `CCOc1cncc(-c2ccccc2CCC(=O)N2CCN(c3ccc(C(=O)NS(=O)(=O)C(C)(C)C)cc3)CC2)c1` [B2L034-01, N-tert-Butylsulfonyl-4-[4-[3-[2-(5-ethoxypyridin-3-yl)phenyl]propanoyl]piperazin-1-yl]benzamide] the “ASMS ratio (%)” value (n = 1) was 1.6% and the “ASMS ratio (%)” value (n = 2) was 3.5%.
With `CCOc1cncc(-c2cc(CN3CCN(c4ccc(C(=O)NS(=O)(=O)C(C)(C)C)nn4)CC3)cc(OC(F)(F)F)c2)c1` [B2L090-01, N-tert-Butylsulfonyl-6-[4-[[3-(5-ethoxypyridin-3-yl)-5-(trifluoromethoxy)phenyl]methyl]piperazin-1-yl]pyridazine-3-carboxamide] the “ASMS ratio (%)” value (n = 1) was 0.0% and the “ASMS ratio (%)” value (n = 2) was 0.0%.
`CCOc1cncc(-c2ccc(CN3CCN(c4ccc(C(=O)NCC(F)(F)F)nn4)CC3)c(CC)c2)c1` [B1K076-01, 6-[4-[[4-(5-Ethoxypyridin-3-yl)-2-ethylphenyl]methyl]piperazin-1-yl]-N-(2,2,2-trifluoroethyl)pyridazine-3-carboxamide] was tested, and the “ASMS ratio (%) n = 2” value [2] was 0.0%.
In the case of `CCOc1cncc(-c2csc(C(=O)N3CCN(c4ccc(C(=O)Nc5ccc(OC)cc5)nn4)CC3)c2)c1` [B1O002-01, 6-[4-[4-(5-Ethoxypyridin-3-yl)thiophene-2-carbonyl]piperazin-1-yl]-N-(4-methoxyphenyl)pyridazine-3-carboxamide], the “ASMS ratio (%) n = 1” value [1] is reported as 2.2% and the “ASMS ratio (%) n = 2” value [1] is reported as 2.6%.
`CCOc1cccc(-c2ccccc2CN2CCN(c3ccc(C(=O)N(CC)CC)cc3)CC2)c1` [B4J045-01, 4-[4-[[2-(3-Ethoxyphenyl)phenyl]methyl]piperazin-1-yl]-N,N-diethylbenzamide] was tested, and the “ASMS ratio (%) n = 1” value [1] was 1.1% and the “ASMS ratio (%) n = 2” value [1] was 0.3%.
In the case of `CCOc1cncc(-c2ccc(CN3CCN(c4ccc(C(=O)Nc5ccc(OC)cc5)nn4)CC3)c(OC)c2)c1` [B1O080-01, 6-[4-[[4-(5-Ethoxypyridin-3-yl)-2-methoxyphenyl]methyl]piperazin-1-yl]-N-(4-methoxyphenyl)pyridazine-3-carboxamide], the “ASMS ratio (%) n = 1” value [1] is reported as 1.4% and the “ASMS ratio (%) n = 2” value [1] is reported as 3.4%.
`CCOc1cccc(-c2cc(OC)c(CN3CCN(c4ccc(C(=O)NS(=O)(=O)C(C)(C)C)cc4)CC3)c(OC)c2)c1` [B2L059-01, N-tert-Butylsulfonyl-4-[4-[[4-(3-ethoxyphenyl)-2,6-dimethoxyphenyl]methyl]piperazin-1-yl]benzamide] was tested, and the “ASMS ratio (%)” value (n = 1) was 0.0% and the “ASMS ratio (%)” value (n = 2) was 0.0%.
`CCOc1cncc(C#Cc2cncc(C(=O)N3CCN(c4ccc(C(=O)N(CC)CC)nn4)CC3)c2)c1` [B4J010-01, 6-[4-[5-[2-(5-Ethoxypyridin-3-yl)ethynyl]pyridine-3-carbonyl]piperazin-1-yl]-N,N-diethylpyridazine-3-carboxamide] was tested, and the “ASMS ratio (%) n = 1” value [1] was 0.0% and the “ASMS ratio (%) n = 2” value [1] was 2.3%.
`CCOc1cncc(C#Cc2cncc(C(=O)N3CCN(c4ccc(C(=O)NCC(F)(F)F)nn4)CC3)c2)c1` [B1K010-01, 6-[4-[5-[2-(5-Ethoxypyridin-3-yl)ethynyl]pyridine-3-carbonyl]piperazin-1-yl]-N-(2,2,2-trifluoroethyl)pyridazine-3-carboxamide] was tested, and the “ASMS ratio (%) n = 1” value [2] was 0.0% and the “ASMS ratio (%) n = 2” value [2] was 0.0%.
For `CCOc1cccc(C#Cc2ccccc2CN2CCN(c3ccc(C(=O)NS(=O)(=O)c4ccc(NCCSc5ccccc5)c(C(F)(F)F)c4)nn3)CC2)c1` [B2R095-01, 6-[4-[[2-[2-(3-Ethoxyphenyl)ethynyl]phenyl]methyl]piperazin-1-yl]-N-[4-(2-phenylsulfanylethylamino)-3-(trifluoromethyl)phenyl]sulfonylpyridazine-3-carboxamide], the “ASMS ratio (%)” value (n = 1) was 42.2% and the “ASMS ratio (%)” value (n = 2) was 5.5%.
